Reference: ChEMBL document CHEMBL1201862, “PubChem BioAssay data set” (2004)
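48-hour exposure; five concentrations; linearly interpolated endpoints. Abbreviation: GI50, concentration required for 50% inhibition of growth.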 Active and inactive are the calls of the source. Rule as the data show it: active = GI50 up to about 1.1 µM and inactive = higher.

Tests used:
Test in all cases: DTP human tumour cell line panel, 48 h
T47D = system: T47D
K562 = system: K562
SNB-75 = system: SNB-75
A498 = system: A498
HOP-62 = system: HOP-62
BT-549 = system: BT-549
OVCAR-4 = system: OVCAR-4
A549 = system: A549
HCC 2998 = system: HCC 2998
SR = system: SR
U-251 = system: U-251
NCI/ADR-RES = system: NCI/ADR-RES
TK-10 = system: TK-10
SW-620 = system: SW-620
PC-3 = system: PC-3
RPMI-8226 = system: RPMI-8226
NCI-H23 = system: NCI-H23
LOX IMVI = system: LOX IMVI
NCI-H522 = system: NCI-H522

Measured: GI50

COc1ccc(/C=C2/SC(c3ccc(Cl)cc3)N(NC(=O)CCCCCCCCC(=O)NN3C(=O)/C(=C\c4ccc(OC)c(OC)c4)SC3c3ccc(Cl)cc3)C2=O)cc1OC (stereo not drawn)
inactive: T47D > 100 µM | K562 78.3 µM | SNB-75 > 100 µM | A498 24.4 µM | HOP-62 25.8 µM | BT-549 > 100 µM | OVCAR-4 > 100 µM | A549 64.3 µM | HCC 2998 > 100 µM | SR > 100 µM | U-251 > 100 µM | NCI/ADR-RES > 100 µM | TK-10 75.2 µM | SW-620 > 100 µM | PC-3 54.1 µM | RPMI-8226 > 100 µM | NCI-H23 20.4 µM

O=NN1CCCS1(=O)=O
inactive: T47D > 100 µM | K562 > 100 µM | SNB-75 12.6 µM | A498 > 100 µM | HOP-62 > 100 µM | BT-549 > 100 µM | LOX IMVI > 100 µM | OVCAR-4 > 100 µM | A549 > 100 µM | HCC 2998 > 100 µM | SR > 100 µM | U-251 > 100 µM | NCI/ADR-RES > 100 µM | TK-10 > 100 µM | SW-620 > 100 µM | PC-3 > 100 µM | RPMI-8226 > 100 µM | NCI-H23 > 100 µM

CC(=O)OC(OC(C)=O)c1ccc2ccc3cccc4ccc1c2c34
inactive: T47D 22.9 µM | K562 38.7 µM | SNB-75 15.7 µM | A498 1.48 µM | BT-549 25.1 µM | LOX IMVI 16 µM | A549 > 100 µM | HCC 2998 11.3 µM | SR 21 µM | U-251 14.3 µM | NCI/ADR-RES 31.3 µM | TK-10 9.25 µM | PC-3 28.6 µM | RPMI-8226 16.3 µM | NCI-H23 18.7 µM

O=C(N/N=C\c1ccc2ccccc2c1)Nc1ccc([N+](=O)[O-])cc1
inactive: T47D 17.9 µM | K562 9.84 µM | NCI-H522 16.3 µM | SNB-75 42.4 µM | HOP-62 27 µM | BT-549 24.3 µM | LOX IMVI 30.5 µM | OVCAR-4 22.1 µM | A549 26.4 µM | HCC 2998 22.1 µM | SR 43 µM | U-251 29.3 µM | NCI/ADR-RES 20.9 µM | TK-10 18.9 µM | SW-620 32.7 µM | PC-3 17.2 µM | RPMI-8226 15.1 µM | NCI-H23 22.2 µM
